The text below walks through data of patent publication US20250179531A1, “COMPOSITIONS AND METHODS FOR HOMOLOGY-DIRECTED REPAIR GENE MODIFICATION” (VOR BIOPHARMA INC., priority 2022, published 2025).

What all share (format): cell-based, human
In series [1] the test system is RAB11a locus. The series can be described thus: Flow cytometry of EGFP reporter from capped dsODN integrated at RAB11a in T cells. As to conditions: 3 μg Cas9, 3 μg RAB11a sgRNA, 1 μg capped dsODN; NU7441 1 μM, SCR7 5 μM, and/or SR1 5 μM in media 24 hours post-electroporation. The source says: Two respective capped, dsODNs were designed comprising an EGFP reporter and homology arms to direct integration at either the AAVS1 or RAB11a loci in T cells (FIG. 16A-16B). T cells were electroporated with dsODN and Cas9 RNP as described herein. Flow cytometry analyses were used to confirm EGFP expression in electroporated T cells. Approximately 20% of cells electroporated with capped, AAVS1 dsODN and 38% of cells electroporated with capped, RAB11a dsODN were GFP positive (FIG. 17A).
On the technique in general: A flow cytometer gives signals particle by particle.

In series [2] the test system is CCR5 gene. Put plainly: ICE analysis of sequencing data, Pvu1 site insertion into CCR5 in CD34+ cells. To be noted: for HDR-mediated editing efficiency (promoting HDR): CD34+ cells in SCGM with hSCF, FLT3-L, TPO, added to RNP and ssODN, FIG. 4A; for efficiency of HDR in CD34+ cells: SR1 and UM171, in the presence or in the absence of IL-6. Here is the method:
The presence of the Pvu1 restriction site in the CCR5 locus was also detected by sequencing. Sequencing data was analyzed via inference of CRISPR/Cas9 (ICE) software to quantify the percent of insertion of the 6 nucleotide Pvu1 site.
To determine conditions that would enhance HDR-mediated editing efficiency, the role of media conditions was assessed. CD34+ cells were cultured in stromal cell growth media (SCGM) supplemented with human stem cell factor (hSCF), Fms-like tyrosine kinase 3 Ligand (FLT3-L), and thrombopoietin (TPO) to promote cell differentiation and proliferation. Using ICE analysis of sequencing data to detect Pvu1 restriction site insertion into the CCR5 gene of CD34+ cells, cells were electroporated with DNA repair modulators to skew repair pathway utilization toward HDR following Cas9 cleavage in combination with cell expansion compounds Interleukin-6 (IL6), StemRegenin 1 (SR1), and UM171 in addition to RNP and ssODN. DNA repair modulators investigated included SCR7 (a ligase IV inhibitor), NU7441 (a DNA-PK inhibitor), Rucaparib (a PARP inhibitor), and RS-1 (an HDR enhancer).

Series [3] concerns T cells. The series can be described thus: T cell viability after electroporation and addition of NHEJ modulators. As to conditions: NU7441 1 μM, SCR7 5 μM, and/or SR1 5 μM in media 24 hours post-electroporation.
Series [4] relates to GBA gene. The series can be described thus: Editing of the GBA gene in CD34+ cells, ICE analysis of sequencing data. The source says: CD34+ cells were electroporated with RNP comprising the designed sgRNAs and with the designed ssODNs. Cells were screened by ICE analysis of sequencing data.
To optimize HDR-mediated editing of the GBA gene loci associated with Gaucher disease, ssODN candidates were screened for their ability to promote high editing efficiencies. Four ssODNs (ssODN1-4) comprising a sequence with a modification to generate the N409S mutation in exon 9 of the GBA gene and two ssODNs (ssODN5 and ssODN6) comprising a sequence with a modification to generate the L483P mutation in exon 10 of the GBA gene were screened. CD34+ cells were electroporated with different combinations of RNPs and ssODNs that corresponded to their respective target sequences, as described above, grown for 2-3 days, and then analyzed for cell viability and by sequencing (FIG. 10A).

With `O=c1cc(N2CCOCC2)oc2c(-c3cccc4c3sc3ccccc34)cccc12` [NU7441], the “increase in GFP expression” value in series [1] is recorded as “approximately 10%”. Also, the “HDR-mediated editing efficiency (promoting HDR)” value (from here on “HDR-mediated editing efficiency”) in series [2] is recorded as “no significant advantage”. Besides, the T cell viability result in series [3] is reported as “reduced”.
As to `O=C(Nc1ccc(Br)cc1)c1ccc(Br)c(S(=O)(=O)NCc2ccccc2)c1` [RS-1], the “HDR-mediated editing efficiency” value in series [2] is recorded as “no significant advantage”.
Still for that read-out and setting: to `CNCc1ccc(-c2[nH]c3cc(F)cc4c3c2CCNC4=O)cc1` [Rucaparib] belongs “no significant advantage”.
`O=c1[nH]c(=S)[nH]c(N=Cc2ccccc2)c1N=Cc1ccccc1` [SCR7]: the “increase in GFP expression” value in series [1] was “approximately 10%”. In addition, the “HDR-mediated editing efficiency” value in series [2] is recorded as “no significant advantage”.
As to `CC(C)n1cnc2c(NCCc3ccc(O)cc3)nc(-c3csc4ccccc34)nc21` [SR1, StemRegenin 1], in series [1], the “increase in GFP expression” value is on record as “approximately 10%”. Also, in series [2], the “HDR-mediated editing efficiency” value was “improved” and the “efficiency of HDR in CD34+ cells” value was “significantly increase”. For the same compound, the T cell viability result in series [3] is “reduced”.
For `Cn1nnc(-c2ccc3c(c2)[nH]c2nc(Cc4ccccc4)nc(NC4CCC(N)CC4)c23)n1` (stereo not drawn) [UM171], in series [2], the “HDR-mediated editing efficiency” value is “improved” and the “efficiency of HDR in CD34+ cells” value is listed as “significantly increase”.
For the compound Interleukin-6 [IL6], in series [2], the “HDR-mediated editing efficiency” value was “improved”. Besides, in series [2] (presence or absence of IL6 in CD34+ cell media, FIG. 4B), the overall editing efficiency entry is “did not significantly affect”. The HDR result in series [2] (presence or absence of IL6 in CD34+ cell media, FIG. 4C) is listed as “did not significantly affect”.
As for “SG1: Cas9 sgRNA to human GBA, position 1226; targeting domain ACAUGGUACAGGAGGUUCUA (SEQ ID NO: 3) (as printed in the source, key not given here)”, in series [4], the “editing efficiency of exon 9 of the GBA gene” value is “high editing efficiency”.
As to “SG2: Cas9 sgRNA to human GBA, position 1226; targeting domain CACAUGGUACAGGAGGUUCU (SEQ ID NO: 6) (as printed in the source, key not given here)”, in series [4], the “editing efficiency of exon 9 of the GBA gene” value is given as “high editing efficiency”.
“SG4: Cas9 sgRNA to human GBA, position 1226; targeting domain CUAGAACCUCCUGUACCAUG (SEQ ID NO: 12) (as printed in the source, key not given here)”: the “editing efficiency of exon 9 of the GBA gene” value in series [4] is “high editing efficiency”.
On to “SG6: Cas9 sgRNA to human GBA, position 1448; targeting domain UGCCAGUCAGAAGAACGACC (SEQ ID NO: 18) (as printed in the source, key not given here)”, for which, in series [4], the “editing efficiency of exon 10 of the GBA gene” value is recorded as “high editing efficiency”.
On the same count and under the same terms, the value for “SG7: Cas9 sgRNA to human GBA, position 1448; targeting domain GCAUCAGUGCCACUGCGUCC (SEQ ID NO: 21) (as printed in the source, key not given here)” was “high editing efficiency”.
